Laboratory results as given in US10793509B2, “Compounds useful in the treatment of neoplastic diseases” (UNIVERSITÄT ZU KÖLN, priority 2013, dated 2020).
Where “and” joins values, the source holds several entries; their conditions need not be identical. Equal values may be shown once.

Assays:
Primary CLL cells = assay: AnnexinV/PI assay on primary CLL cells; format: cell-based, human
Procedure: PBMCs or CLL cells (5*10^6 cells/ml) were incubated for 24 h with different compounds at concentrations from 0.01 to 100 μM. Cell survival was normalized to DMSO control [vehicle]. See Example 1.
Primary CLL or peripheral blood mononuclear cells of healthy donors (5*10^6/ml) were incubated for 24 h with different compounds according to the invention and NO-ASA as a control. The compounds were added in different concentrations, in particular in concentrations from 0.01-100 μM. Cell survival was assessed by AnnexinV/PI assay (Kit commercially available, e.g. by Biotium Inc, USA; or Phoenix Flow Systems, US), the results were normalized to DMSO control [vehicle] and dose response curves were calculated using a non-linear regression model.

[1] = system: JVM3 cells (human chronic B cell leukemia cell line); assay: CLL xenograft mouse model (JVM3 cells subcutaneously in SCID beige mice); format: in vivo
Procedure: Treatment with B9 leads to significant tumor inhibition compared to vehicle control (p=0.015) after nine days with increasing significance up to day 19 of treatment (p=0.0003). IRmax value of 65% for B9 over vehicle control was determined. *=p≤0.05, **=p≤0.01, ***=p≤0.001 calculated by unpaired two-tailed students test, †=death, IR=Inhibition ratio.
Due to its favorable characteristics B9 was chosen for in vivo testing in a CLL xenograft mouse model. JVM3 cells (human chronic B cell leukemia cell line) were injected subcuntaneously into the flank of immunincompetent mice. The developing solid tumor was treated with intraperitoneal injections of 8 mg/kg of compound B9 or sesame oil (vehicle) every other day (see FIG. 4).
1*10^7 JVM3 cells were injected subcutaneously in SCID beige mice (CB17.Cg-Prkdc^scidLyst^bg-J/Crl). Tumors were measured every other day by caliper and the tumor volume was calculated V=(Length*(0.5*Width^2)). Mice carrying a tumor of more than 50 mm^3 were treated every other day with either sesame oil (vehicle control) or with 8 mg/kg B9 solved in sesame oil via intraperitoneal injections. The abortion criteria given by the GV-SOLAS for tumor bearing mice were applied. p-values were calculated using unpaired two-tailed Students test.

JVM-3 = assay: CellTiter-Glo ATP assay, JVM-3 cell line; format: cell-based, human; conditions: 24 h, 0.01-1000 μM
Procedure: Several cell lines (n=5) were treated with different concentrations of p-NO-ASA, B9, B12 and B13 ranging between 0.01 μM and 1000 μM for 24 hours followed by addition of luminogenic CellTiter-Glo®-reagent. […] For each cell line the order of used compound in the bar chart is from left to right as following: p-NO-ASA, B9, B12, B13.
Treatment success in CLL may depend on cytogenetic and molecular parameters as for instance del13q or TP53 gene disruption. Therefore, the NO-ASA derivatives were examined on (chronic) B cell lymphoma cell lines with different geno- and phenotypes (JVM3, EHEB, U2932, MEC-1, GRANTA-519). The cells were treated with concentrations between 0.01 and 1000 μM for 24 h followed by the addition of luminogenic CellTiter-Glo® reagent.

TP53-mutated CLL cells = assay: FACS analysis of treated CLL cells with TP53 mutation; format: cell-based, human; conditions: 24 h, 0.01-100 μM, FIG. 6
Procedure: Isolated, primary CLL cells were treated for 24 h with the EC50 of the different compounds and the ATP-content was measured by flow cytometry. For each used compound the order of mean EC50 concentrations in the bar chart is from left to right as following: EC50 CLL cells TP53 unmut (unmutated=without mutation), EC50 CLL cells TP53 mut (mutated=with mutation).
Further, the derivatives B9, B12 and B13 were tested in comparison to para-NO-ASA on CLL cells which harbour a TP53 mutation. The patient subgroup with a TP53 disruption is characterized by a considerable dismal prognosis. CLL cells of patients with and without the TP53 mutation were treated with five different concentrations (0.01, 0.1, 1, 10, 100 μM) of para-NO-ASA, B9, B12 and B13 for 24 h.

[2] = system: colon carcinoma cell line SW480; assay: cells; format: cell-based; conditions: Homo sapiens, SW480, 24 h, read-out: Viability assay EC50, SW480
Procedure: The cell lines (n=5) were treated with different concentrations of p-NO-ASA, B9, B12 and B13 ranging between 0.01 μM and 100 μM for 24 hours followed by addition of luminogenic CellTiter-Glo®-reagent (see Example 5).
In the following experiment the possible therapeutic window for NO-ASA derivatives was investigated. […] The melanoma cell line MelJuso, the colon carcinoma cell line SW480, the small cell lung cancer cell line HCC44, the ovarian adenocarcinoma cell line COLO704 and the acute myeloid leukemia cell line SH2 were treated with concentrations of p-NO-ASA and B9, B12 and B13 in a range between 0.01 μM and 100 μM for 24 h, followed by addition of luminogenic CellTiter-Glo® reagent.
Table accompanying Example 5. Overview of the EC50 values of cell survival analyzed by ATP content and Annexin V/PI assay. n.t.; not tested

[3] = system: small cell lung cancer cell line HCC44; assay: Annexin V/PI assay, HCC44; format: cell-based; conditions: Homo sapiens, HCC44, 24 h
caspases 3 and 7 = assay: caspase-3/7 assay in CLL cells; format: cell-based; conditions: Homo sapiens, CLL cell, 6 h, 0.01-20 μM, luminogenic caspase-3/7-substrate, read-out: activation of caspases 3 and 7, EC50
Source text: FIG. 8 depicts the involvement of caspase-mediated apoptosis in CLL cells upon treatment with p-NO-ASA, B9, B12 and B13. Representative blots of 3 independent experiments are shown. Untreated and DMSO (1%) treated cells served as control. beta-actin=loading control (FIG. 8A). para-NO-ASA and B9 induced a concentration-dependent increase in caspase-3/7-activation (FIG. 8B).
To determine whether the toxicity on CLL cells is due to caspase-mediated apoptosis, the cleavage of PARP (Poly(ADP-ribose)-Polymerase 1) and XIAP (X-linked inhibitor of apoptosis) was analyzed by immunoblot. CLL cells were cultured alone, with 1% DMSO or with EC50 of p-NO-ASA, meta-NO-ASA, B9, B12 and B13 for 24 h followed by protein lysation and western blot analysis using antibodies to detect prognostic apoptotic proteins (XIAP, PARP). […] All compounds tested induced PARP and XIAP cleavage (FIG. 8A). Further a caspase-3/7 assay was carried out. CLL cells were incubated with para-NO-ASA and B9 in different concentrations ranging from 0.01 μM to 20 μM for 6 h followed by addition of luminogenic caspase-3/7-substrate. This indicates the reduction of the survival of CLL cells upon treatment with p-NO-ASA and B9 due to the induction of caspase-mediated apoptosis.

[4] = mice, 8 mg/kg i.p. every other day

For `O=C(Oc1ccc(CO[N+](=O)[O-])cc1)c1ccccc1` [B9, 4-((nitrooxy)methyl)phenyl benzoate], the “selectivity for CLL cells compared to PBMCs” value (Primary CLL cells; FIG. 3, sensitivity of CLL cells vs PBMCs, 24 h) was “selective for CLL cells”, the EC50 (Primary CLL cells; Homo sapiens, CLL cell, 24 h incubation, 0.01-100 μM, 5*10^6 cells/ml, normalized to DMSO control, read-out: AnnexinV/PI assay EC50 Primary CLL) was 1850 nM and the “Inhibition ratio of tumor growth (IR, IRmax) over vehicle control” value ([1]; 8 mg/kg i.p. every other day in sesame oil, highest at day 17) was 65.33% and 65%. For the same molecule, the tumor growth ([1]; 8 mg/kg i.p. every other day vs sesame oil vehicle) was “significant reduction in tumor growth”, the tumor volume ([1]; Day 9 of treatment, 8 mg/kg i.p. every other day) was 82.97 mm^3 and the bodyweight [1, 4] was “A reduction of bodyweight was not observed”. For the same molecule, the severe side effects [1, 4] was “Severe side effects were not observed”, the mobility after treatment ([1]; mice, 8 mg/kg i.p. every other day, drinking and feeding normally) was “slightly reduced mobility for 15 to 30 min” and the “ATP content in JVM-3” value (JVM-3) was “reduced ATP content”. The “effect on TP53-mutated CLL cells in comparison to para-NO-ASA (B1)” value (TP53-mutated CLL cells) was “more effective”, the EC50 [2] was 31.8 µM and the EC50 [3] was 6.76 µM. It also gave an EC50 (caspases 3 and 7) of 230 nM.
